Some test systems named below: SNB-19; CAKI-1; SF-295; 786-0; LOX IMVI; OVCAR-3; UO-31; HCC 2998; SK-OV-3; HL-60; TK-10; UACC-62; SK-MEL-2; HCT-15; PC-3; OVCAR-4; SNB-75; SK-MEL-28; EKVX; OVCAR-8.
What all share (assay): NCI-60 cell line screen, 48 h

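Each compound was tested at five concentrations against cells in 96-well plates for 48 hours. Abbreviation: GI50, concentration required for 50% inhibition of growth.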 The source made the active and inactive calls. Rule as the data show it: active = GI50 up to about 1.1 µM and inactive = higher.

Results on eleven compounds are retold here after ChEMBL document CHEMBL1201862, “PubChem BioAssay data set” (2004).

In the case of `OC1(c2ccc(-c3ccccc3)cc2)c2ccccc2C2=NCCN21` (stereo not drawn), the GI50 with SNB-19 was 15.4 µM (inactive); in the test on CAKI-1 it was 50.6 µM (inactive); in the test on SF-295, 52.2 µM (inactive); in the test on 786-0, 16 µM (inactive); in the test with LOX IMVI, 34.8 µM (inactive); in the test with OVCAR-3, 19 µM (inactive). Also, the GI50 was 30.6 µM (inactive) with UO-31; 19.1 µM (inactive) in the test on HCC 2998; 86.3 µM (inactive) in the test on SK-OV-3; 33.7 µM (inactive) in the test on HL-60; > 100 µM (inactive) in the test with TK-10; 20.4 µM (inactive) in the test with UACC-62. Further, the GI50 in the test on SK-MEL-2 is 3.61 µM (inactive); in the test on HCT-15 it was 39.9 µM; with PC-3, 11.9 µM (inactive); in the test with OVCAR-4, 56.8 µM (inactive); in the test with SNB-75, 19.3 µM (inactive); in the test on SK-MEL-28 it was 21.7 µM (inactive).

With `N/C(S)=N/N=C/c1ncccc1O`, the GI50 in the test on SNB-19 was 2.65 µM (inactive); with CAKI-1, 0.927 µM (active); in the test with SF-295, 0.766 µM (active); in the test with 786-0, 1.16 µM (inactive); with LOX IMVI it was 0.925 µM (active); in the test with OVCAR-3, 1.88 µM (inactive). Besides, the GI50 was 0.701 µM (active) in the test on UO-31; 2.35 µM (inactive) in the test with EKVX; 9.08 µM (inactive) in the test on HCC 2998; 4.21 µM (inactive) with SK-OV-3; 9.57 µM (inactive) in the test with TK-10; 0.482 µM (active) in the test on UACC-62. The GI50 with SK-MEL-2 is 6.84 µM (inactive); with HCT-15 it was 1.5 µM; with PC-3, 2.97 µM (inactive); in the test with OVCAR-4, 2.96 µM (inactive); in the test on SNB-75, 1.94 µM (inactive); in the test on SK-MEL-28 it was 4.29 µM (inactive).

Regarding `c1cc2c3ccsc3c3sccc3c2s1`, the GI50 in the test with OVCAR-8 is > 100 µM (inactive); in the test with CAKI-1 it was > 100 µM (inactive); with SF-295 it was > 100 µM (inactive); with 786-0, 95.9 µM (inactive); in the test with LOX IMVI, > 100 µM (inactive); with OVCAR-3 it was > 100 µM (inactive). Further, the GI50 with UO-31 was > 100 µM (inactive); with EKVX, > 100 µM (inactive); with HCC 2998 it was 36.4 µM (inactive); with SK-OV-3 it was > 100 µM (inactive); with HL-60 it was 46.9 µM (inactive); in the test with TK-10, > 100 µM (inactive). Also, the GI50 is > 100 µM (inactive) in the test with UACC-62; 10.6 µM (inactive) in the test with SK-MEL-2; > 100 µM in the test on HCT-15; > 100 µM (inactive) in the test with PC-3; > 100 µM (inactive) in the test with OVCAR-4; 23.1 µM (inactive) in the test with SNB-75. Also, the GI50 with SK-MEL-28 is > 100 µM (inactive).

Take `O=C(NCc1cccc2ccccc12)N/N=C\c1ccc(Cl)cc1`: the GI50 in the test on SNB-19 is > 100 µM (inactive); in the test with OVCAR-8 it was > 100 µM (inactive); in the test on CAKI-1, 43.2 µM (inactive); in the test on SF-295, 53.5 µM (inactive); with 786-0 it was > 100 µM (inactive); in the test on LOX IMVI it was > 100 µM (inactive). For the same compound, the GI50 is > 100 µM (inactive) in the test with OVCAR-3; > 100 µM (inactive) in the test with UO-31; 36.1 µM (inactive) in the test with EKVX; 57.7 µM (inactive) in the test with HCC 2998; > 100 µM (inactive) with HL-60; > 100 µM (inactive) in the test on TK-10. For the same compound, the GI50 in the test on UACC-62 is > 100 µM (inactive); in the test with SK-MEL-2 it was > 100 µM (inactive); with HCT-15, > 100 µM; with PC-3, > 100 µM (inactive); in the test with OVCAR-4, > 100 µM (inactive); with SNB-75 it was 62.8 µM (inactive). In the test with SK-MEL-28, the GI50 is > 100 µM (inactive).

Consider `CCOP(=O)(CC1CC(O)(CNc2cc(Cl)nc(N)n2)C1)OCC` (stereo not drawn), for which the GI50 in the test with OVCAR-8, in the test on CAKI-1, in the test on SF-295, in the test with 786-0, in the test on LOX IMVI and in the test with OVCAR-3 was > 100 µM (inactive) throughout. The GI50 with UO-31, with EKVX, in the test on HCC 2998, in the test on SK-OV-3, with HL-60 and in the test with TK-10 was > 100 µM (inactive) in each case. Moreover, the GI50 with UACC-62 was > 100 µM (inactive); in the test with SK-MEL-2, > 100 µM (inactive); in the test on HCT-15, > 100 µM; in the test on PC-3 it was > 100 µM (inactive); in the test with OVCAR-4, > 100 µM (inactive); with SNB-75, > 100 µM (inactive). In the test on SK-MEL-28, the GI50 was > 100 µM (inactive).

On to `CC(C(=O)ON1C(=O)CCC1=O)c1ccc(C(=O)c2ccccc2)s1` (stereo not drawn), for which the GI50 with SNB-19, in the test with OVCAR-8, with CAKI-1, with SF-295, in the test on 786-0 and with LOX IMVI was > 100 µM (inactive) in each case. The GI50 in the test with OVCAR-3, in the test with UO-31, in the test with EKVX, in the test on HCC 2998, in the test on SK-OV-3 and with TK-10 was > 100 µM (inactive) in each case. Moreover, the GI50 in the test on UACC-62 is > 100 µM (inactive); in the test with SK-MEL-2, > 100 µM (inactive); in the test on HCT-15, > 100 µM; with PC-3, > 100 µM (inactive); with OVCAR-4, > 100 µM (inactive); in the test with SNB-75 it was > 100 µM (inactive). In addition, the GI50 with SK-MEL-28 was > 100 µM (inactive).

For `c1csc(-c2cc(-c3cccs3)c(-c3ccsc3)s2)c1`, the GI50 in the test with SNB-19, with OVCAR-8, in the test on CAKI-1, with SF-295, with 786-0 and in the test on LOX IMVI was > 100 µM (inactive) in each case. Moreover, the GI50 in the test with UO-31 is > 100 µM (inactive); in the test with EKVX, > 100 µM (inactive); in the test with HCC 2998 it was 34.2 µM (inactive); in the test with SK-OV-3, > 100 µM (inactive); in the test on HL-60, > 100 µM (inactive); in the test with TK-10, > 100 µM (inactive). The GI50 was > 100 µM (inactive) in the test on UACC-62; > 100 µM (inactive) with SK-MEL-2; 19.2 µM in the test with HCT-15; > 100 µM (inactive) in the test on PC-3; > 100 µM (inactive) in the test with OVCAR-4; > 100 µM (inactive) in the test on SNB-75. Further, the GI50 in the test on SK-MEL-28 is > 100 µM (inactive).

Turning to `Cc1cccc(C)c1NC(=S)NC=C(C(N)=O)C(N)=O`, the GI50 in the test with SNB-19, in the test on OVCAR-8, with CAKI-1, in the test on SF-295, in the test with 786-0 and in the test on LOX IMVI was > 100 µM (inactive) each time. Moreover, the GI50 with OVCAR-3, with UO-31, with EKVX, in the test on HCC 2998, with SK-OV-3 and in the test on TK-10 was > 100 µM (inactive) each time. Moreover, the GI50 in the test with UACC-62 was > 100 µM (inactive); in the test on SK-MEL-2, > 100 µM (inactive); in the test on HCT-15 it was > 100 µM; in the test on PC-3, > 100 µM (inactive); in the test with OVCAR-4, > 100 µM (inactive); in the test on SNB-75 it was > 100 µM (inactive). Besides, the GI50 in the test on SK-MEL-28 was > 100 µM (inactive).

Turning to `CC1=NN(c2cccc(Cl)c2)C2(SCC(=O)N2c2nc3ccccc3s2)/C1=C\c1cccs1` (stereo not drawn), the GI50 was 20.8 µM (inactive) in the test on OVCAR-8; 29.7 µM (inactive) in the test with CAKI-1; 27.4 µM (inactive) in the test on SF-295; 19.5 µM (inactive) in the test with 786-0; 23.8 µM (inactive) in the test with LOX IMVI; 24.8 µM (inactive) in the test on OVCAR-3. For the same compound, the GI50 is 22.4 µM (inactive) in the test with UO-31; 14.6 µM (inactive) in the test on EKVX; 16.6 µM (inactive) with HCC 2998; 27.9 µM (inactive) with HL-60; 31.7 µM (inactive) with TK-10; 18.8 µM (inactive) in the test on SK-MEL-2. The GI50 is 20.7 µM in the test with HCT-15; 25.5 µM (inactive) in the test on PC-3; 21 µM (inactive) in the test with OVCAR-4; 17.5 µM (inactive) in the test with SNB-75; 29.4 µM (inactive) in the test with SK-MEL-28.

For the compound `COC(=O)CCC(NC(=O)OC(C)(C)C)C(=O)NC(Cc1ccc(NC(=O)CCCC(C)=O)cc1)C(=O)NC(CCC(=O)OC)C(=O)OC` (stereo not drawn), the GI50 with SNB-19, in the test on OVCAR-8, with CAKI-1, with SF-295, with 786-0 and with LOX IMVI was > 100 µM (inactive) in each case. Also, the GI50 in the test with OVCAR-3, in the test on UO-31, in the test on EKVX, in the test on HCC 2998, with SK-OV-3 and in the test on TK-10 was > 100 µM (inactive) throughout. The GI50 in the test with UACC-62 is > 100 µM (inactive); in the test on SK-MEL-2, > 100 µM (inactive); in the test on HCT-15 it was > 100 µM; in the test on PC-3 it was > 100 µM (inactive); in the test on OVCAR-4, > 100 µM (inactive); in the test on SNB-75 it was > 100 µM (inactive). The GI50 in the test on SK-MEL-28 was > 100 µM (inactive).

As for `COc1cc2c(c(OC)c1OC)-c1ccc(OC)c(=O)cc1[C@@H](NC(=O)c1ccccc1)CC2`, the GI50 was 0.0206 µM (active) in the test with CAKI-1; 0.0136 µM (active) with SF-295; 0.0184 µM (active) in the test on 786-0; 0.0142 µM (active) in the test on LOX IMVI; < 0.0103 µM (active) with OVCAR-3; 0.449 µM (active) in the test on UO-31. The GI50 in the test on EKVX was 5.15 µM (inactive); with HCC 2998, 0.0162 µM (active); with SK-OV-3, 0.0646 µM (active); in the test on HL-60, < 0.01 µM (active); in the test with TK-10, 0.17 µM (active); in the test on UACC-62, < 0.0113 µM (active). Besides, the GI50 is 0.012 µM (active) in the test with SK-MEL-2; 0.021 µM in the test on HCT-15; 0.0169 µM (active) in the test on PC-3; < 0.0327 µM (active) in the test with SNB-75; 1.86 µM (inactive) with SK-MEL-28.
